One may read the melting point as the temperature, or range, at which the solid turns liquid. As usually defined, the pIC50 is the IC50 on a negative log10 scale, so that one unit is a factor of ten.

pIC50: −log10 of the molar value. Read-outs that look alike come from different tables or passages of the source. Where only a bound is given, the exact number is not on record here.

One data set deals with A549 (lung carcinoma). The data set is described as follows: A549 WST assay (cell growth / cell viability). In kind it is cell-based, human. The settings on record: for pIC50: Homo sapiens; for effect on cell growth and cell viability of A549: A549 in vitro, result in words.
The subject of the next data set is U87MG (glioblastoma). The data set can be described thus: U-87 MG WST assay (cell growth / cell viability). In kind it is cell-based, human. The conditions noted are these: for pIC50: Homo sapiens; for effect on cell growth and cell viability of U87MG: U87MG in vitro, result in words.
Where [1] appears, read: A549 (lung carcinoma), summary, FIG. 1 / Discussion, read-out: IC50, inhibition of growth in vitro of A549.
The mark [2] stands for this setting: first A549 WST assay, FIG. 2, read-out: IC50, first A549 WST assay.
Where [3] appears, read: second A549 WST assay, FIG. 3, read-out: IC50, second A549 WST assay.
[4] abbreviates: U-87 MG, U87MG (glioblastoma), summary, FIG. 1 / Discussion, read-out: IC50, inhibition of growth in vitro of U87MG.
Setting [5] is: first U-87 MG WST assay, FIG. 4, read-out: IC50, first U-87 MG WST assay.
The mark [6] stands for this setting: second U-87 MG WST assay, FIG. 5, read-out: IC50, second U-87 MG WST assay.
Where [7] appears, read: listed as N-ethyl derivative of sanguinarine.

`c1c2c(cc3c1OCO3)-c1ncc3c4c(ccc3c1CC2)OCO4` [Compound 14, 11,12-Dihydro-2,3,7,8-bismethylenedioxybenzo[c]phenanthridine] returned a melting point of 246 to 247 °C. Further, the pIC50 with A549 (lung carcinoma) (setting [1]) is less than 5.00. In addition, the pIC50 in the data set with A549 (lung carcinoma) (setting [2]) was less than 5.00. Besides, the pIC50 in the data set with A549 (lung carcinoma) (setting [3]) was less than 5.00. In addition, the pIC50 in the data set on U87MG (glioblastoma) (setting [4]) was less than 5.00. Also, in the data set on U87MG (glioblastoma) (setting [5]), the pIC50 is less than 5.00. The pIC50 in the data set on U87MG (glioblastoma) (setting [6]) is less than 5.00.
In turn, `c1cc2c(cnc3c4cc5c(cc4ccc23)OCO5)c2c1OCO2` [Compound 15, 2,3,7,8-bismethylene-dioxybenzo[c]-phenanthridine] yielded a melting point of 270 to 272 °C. The pIC50 in the data set on A549 (lung carcinoma) (setting [1]) was less than 5.00. Besides, the pIC50 in the data set on A549 (lung carcinoma) (setting [2]) was less than 5.00. Moreover, the pIC50 in the data set with A549 (lung carcinoma) (setting [3]) is less than 5.00. In addition, the pIC50 in the data set with U87MG (glioblastoma) (setting [4]) was less than 5.00. The pIC50 with U87MG (glioblastoma) (setting [5]) was less than 5.00. In addition, the pIC50 with U87MG (glioblastoma) (setting [6]) is less than 5.00.
`CC[n+]1cc2c3c(ccc2c2ccc4cc5c(cc4c21)OCO5)OCO3.[Cl-]` [Compound 17, N-Ethyl Derivative of Sanguinarine] came in with a melting point of 258 to 259 °C. The “effect on cell growth and cell viability of A549” value in the data set with A549 (lung carcinoma) was “inhibits cell growth and reduces cell viability”. Moreover, in the data set on A549 (lung carcinoma) (setting [7]), the “effect on cell growth and cell viability of A549” value is given as “inhibited cell growth”. For the same compound, the pIC50 in the data set with A549 (lung carcinoma) (setting [1]) was approximately 5.80. The pIC50 with A549 (lung carcinoma) (setting [2]) was approximately 5.80. The pIC50 in the data set on A549 (lung carcinoma) (setting [3]) was approximately 5.80. In the data set on U87MG (glioblastoma) (setting [4]), the negative logarithm of the IC50 (pIC50) is approximately 5.48. In addition, the pIC50 with U87MG (glioblastoma) (setting [5]) is approximately 5.48. The pIC50 in the data set with U87MG (glioblastoma) (setting [6]) was approximately 5.48. The “effect on cell growth and cell viability of U87MG” value in the data set on U87MG (glioblastoma) is “inhibits cell growth and reduces cell viability”. Also, the “effect on cell growth and cell viability of U87MG” value in the data set on U87MG (glioblastoma) (setting [7]) is recorded as “inhibited cell growth”.
In the case of `CC[C@@]1(O)C(=O)OCc2c1cc1n(c2=O)Cc2cc3c(CN(C)C)c(O)ccc3nc2-1` [Topotecan, reference compound], the pIC50 was 6.70 with A549 (lung carcinoma) (setting [1]); approximately 6.70 in the data set with A549 (lung carcinoma) (setting [2]); approximately 6.70 with A549 (lung carcinoma) (setting [3]); 6.52 in the data set with U87MG (glioblastoma) (setting [4]); approximately 6.52 in the data set with U87MG (glioblastoma) (setting [5]); approximately 6.52 in the data set on U87MG (glioblastoma) (setting [6]).
For `C[n+]1cc2c3c(ccc2c2ccc4cc5c(cc4c21)OCO5)OCO3` [sanguinarine, 13-methyl-[1,3]benzodioxolo[5,6-c]-1,3-dioxolo[4,5-i]phenanthridinium, reference compound], the pIC50 in the data set on A549 (lung carcinoma) (setting [1]) is 6.10; in the data set on A549 (lung carcinoma) (setting [2]), 6.10; in the data set with A549 (lung carcinoma) (setting [3]), 6.10; in the data set on U87MG (glioblastoma) (setting [4]), 5.70; in the data set on U87MG (glioblastoma) (setting [5]), 5.70; in the data set with U87MG (glioblastoma) (setting [6]), 5.70.
